Like-named read-outs stand apart in the source and are kept apart here.
Assays:
[1] = Rat pharmacokinetics study, oral gavage (Example B8); assay type: in vivo
Procedure: Pharmacokinetics of the testing compounds was determined in male SD rats, n=3. Briefly, each compound was prepared in 0.5% CMC-Na and 1% Tween in water to yield a homogeneous suspension at 1 mg/ml, and then administrated to 10 mg/kg via oral gavage. The animals were fasted overnight before dosing and fed for 4 hour post dosing with free access to water for all time. Blood samples were collected at pre-dose, 0.083, 0.25, 0.5, 1, 2, 4, 8 and 24 hours, into K2EDTA-coated tube via tail vein for serial sampling and cardiac puncture for terminal sampling. […] Plasma samples were stored at approximately −80° C. until analysis. The compound in the plasma samples were then extracted and concentrations determined by LC-MS/MS.

[2] = Metabolic stability assay in rat liver microsomes; assay type: in vitro ADME; settings: for half-life at 1 µM: rat, liver microsomes
Procedure: The metabolic stability of the compounds was evaluated in incubation with rat liver microsomes.

[3] = system: C2C12 cells; assay: Mitochondrial uncoupling activity by oxygen consumption rate (OCR) assay, Seahorse, in presence of oligomycin; assay type: cell-based, mouse; settings: for minimal effective concentration: Mus musculus, C2C12, in the presence of oligomycin 2.5 μM, read-out: COCR-min: minimal concentration increasing OCR in the presence of oligomycin
Outline: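 Mouse C2C12 myoblasts grown in 10% FBS medium had OCR measured on Seahorse XF96/XF24 sequentially: basal, after 2.5 μM oligomycin (final), then after compound at varying concentrations. Rotenone/antimycin A confirmed mitochondrial origin. COCR-min is the minimal compound concentration inducing OCR in the presence of oligomycin.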

[4] = PO pharmacokinetic study, oral exposure (Example B3); assay type: in vivo; settings: for AUC at 24 h / AUC(0-t) at 24 h: blood, po; for AUC at 24 h: 10 mg/kg gavage; for Fold increase over Compound 27 in U.S. Pat. No. 10,227,315: ratio of oral AUC 24 hr
Procedure: The blood concentration of the compound was then determined at 0 (pre-dosing), 5 min, 15 min, 30 min, 1 hr, 2 hr, 4 hr, 8 hr, 24 hr time points by LC-MS/MS analysis (See Tables 1 and 2, vide supra).

[5] = system: high-fat diet (HFD)-induced diabetic mouse model; assay: Efficacy in high-fat diet (HFD)-induced diabetic/fatty liver mouse model; assay type: in vivo; settings: Mus musculus; HFD model, oral daily gavage; read-out: Efficacious dosage to reduce blood glucose in mouse models, oral daily gavage
Procedure: For HFD induced diabetic mouse model, C57Bl6 mice (male, n=6) were induced to obese and diabetic conditions by feeding high-fat diet (HFD, 60% fat calories, Research Diet, Inc. New Brunswick, NJ) for 3-4 months. […] During the 3-week period, the mice continued feeding HFD. […] The blood glucose levels were measured after an overnight fast, plasma insulin levels were tested after 5-6 hours fast, and the glycated HbA1c levels were determined in whole blood samples.
FIG. 15C and FIG. 15D show liver sections from mice fed HFD following 3 weeks of treatment with Compounds 25 and 64, respectively (P.O. dosing of 5 mg/kg, by daily gavage).
Experiments were similarly performed with other compounds, in either high-fat diet induced diabetes and fatty liver models, or in db/db mouse model, or in both, by daily oral gavage administration with low dosages.

[6] = system: C2C12; assay: Cell growth inhibition assay (SRB), C2C12; assay type: cell-based; settings: Mus musculus, C2C12, 48 h
Procedure: Cell growth inhibition assays were performed using a protocol standardized by National Cancer Institute (NCI) for evaluating anti-cancer drugs. Various mammalian cell lines were used for the assays. Briefly, the cells were inoculated into 96 well microtiter plates. After cell inoculation, the microtiter plates were incubated for cell growth for 24 h prior to the addition of compounds. After 24 h, two plates of each cell line were fixed in situ with TCA, to represent a measurement of the cell population for each cell line at the time of compound addition (Tz). Test compounds were solubilized in dimethyl sulfoxide. At the time of test compound addition, five 10-fold or ½ log serial dilutions were made to provide a total of five test compound concentrations plus control. Aliquots of 100 μl of these different test compound dilutions were added to the appropriate microtiter wells already containing 100 μl of the medium, resulting in the required final test compound concentrations. […] The bound stain was subsequently solubilized with 10 mM trizma base, and the absorbance was read on an automated plate reader at a wavelength of 515 nm. Using the seven absorbance measurements [time zero, (Tz), control growth, (C), and test growth in the presence of a compound at the five concentration levels (Ti)], the percentage growth was calculated at each of the test compound concentrations levels.

[7] = system: cultured mammalian cells, the NIH-3T3 cells, C2C12 cells, and other mammalian cell lines; assay: Mitochondrial membrane potential (MMP) assay, TMRE (or DilC1(5)) staining, related to OCR induction; assay type: cell-based; settings: ratio of concentration leading to 10% MMP retention (90% MMP loss, TMRE) to minimal concentration leading to OCR increase
Procedure: Mitochondrial membrane potential assay was performed using the standard TMRE (tetramethylrhodamine ethyl ester) staining method with cultured mammalian cells, the NIH-3T3 cells, C2C12 cells, and other mammalian cell lines. Cells were seeded in 6-well plates and cultured in DMEM medium supplemented with 10% fetal bovine serum and 2 mM glutamine. Cells were allowed to grow to the logarithmic growth phase prior to experiments. The cells were treated with each individual compound at various concentrations for two hours, followed by staining with TMRE at a final concentration of 100 nM for 15 minutes. The cells were then washed once with PBS, and examined under fluorescence microscopy. Cells treated with various concentrations of niclosamide ethanolamine were used as a positive control.
In some examples, mitochondrial membrane potential was measured with DilC1(5) staining. Briefly, DilC1(5) was added to the cells to 50 nM final concentration and the cells were incubated at 37° C., 5% CO2, for 15 to 30 minutes. Cells were washed once by adding 2 mL of warm phosphate-buffered saline (PBS). Mitochondrial staining was determined by fluorescence microscopy with 633 nm excitation using standard filters for far-red emission.
Using the ratio between C10% TMRE (the concentration at which 10% MMP remains, i.e. 90% MMP is lost) and Cmin-OCR (the concentration at which minimal OCR induction is observed), we categorized the MMP-retaining uncouplers into two groups.

[8] = system: LX-2 cells (human hepatic stellate cells); assay: Inhibition of TGFβ-induced hepatic stellate cell differentiation into myofibroblast-like cells; assay type: cell-based; settings: TGFβ 10 ng/ml; for minimal effective concentration: Homo sapiens, LX-2, hepatic stellate cell differentiation to myofibroblast-like cells, 24 hours, read-out: Minimal inhibitory concentration; for inhibition of TGFβ-induced hepatic stellate cell differentiation: in words
Procedure: Liver fibrosis is one hallmark of NASH. […] This process could be modeled in vitro using the hepatic stellate differentiation experiment. The human hepatic stellate LX-2 cells were cultured within DMEM (Dulbecco's Modified Eagle Media, pH 7.4) supplied with 2% fetal bovine serum, 4.5 g/l glucose and 2 mM glutamine to 100 percent confluence. […] Cellular morphology was then examined under a microscope. As shown in FIG. 16 to FIG. 17, hepatic stellate cells could be induced by TGF-beta to differentiate into myofibroblast-like cells.

[9] = system: animal models; settings: mixed with food, cited from earlier work; for dose required to achieve efficacy, equivalent: equivalent of ppm in diet
[10] = system: HepG2; assay: Cell growth inhibition assay (SRB), HepG2; assay type: cell-based; settings: Homo sapiens, HepG2, 48 h
Procedure: Cell growth inhibition assays were performed using a protocol standardized by National Cancer Institute (NCI) for evaluating anti-cancer drugs. Various mammalian cell lines were used for the assays. Briefly, the cells were inoculated into 96 well microtiter plates. After cell inoculation, the microtiter plates were incubated for cell growth for 24 h prior to the addition of compounds. After 24 h, two plates of each cell line were fixed in situ with TCA, to represent a measurement of the cell population for each cell line at the time of compound addition (Tz). Test compounds were solubilized in dimethyl sulfoxide. At the time of test compound addition, five 10-fold or ½ log serial dilutions were made to provide a total of five test compound concentrations plus control. Aliquots of 100 μl of these different test compound dilutions were added to the appropriate microtiter wells already containing 100 μl of the medium, resulting in the required final test compound concentrations. Following test compound addition, the plates were incubated for an additional 48 h. The assay was terminated by the addition of cold TCA. Cells were fixed in situ with 50 μl of cold 50% (w/v) TCA (final concentration, 10% TCA), washed five times with tap water and air-dried. Sulforhodamine B (SRB) solution (100 μl) at 0.4% (w/v) in 1% acetic acid was added to each well, and plates were incubated for 10 minutes at room temperature. After staining, the unbound dye was removed by washing five times with 1% acetic acid and the plates were air-dried. The bound stain was subsequently solubilized with 10 mM trizma base, and the absorbance was read on an automated plate reader at a wavelength of 515 nm. Using the seven absorbance measurements [time zero, (Tz), control growth, (C), and test growth in the presence of a compound at the five concentration levels (Ti)], the percentage growth was calculated at each of the test compound concentrations levels.

[11] = in words, cited from earlier work

CN(C)CCc1cc(Cl)cc(C(=O)Nc2nc3ccc(C(F)(F)F)cc3s2)c1O [Compound 2 of U.S. Pat. No. 10,227,315]
Rat Oral PK (in vivo) half-life (T1/2, hour) ([1]; 10 mg/kg oral gavage): 66.9 h
half-life ([1]; plasma, 10 mg/kg, oral): 66.9 h
Metabolic stability half-life (T1/2, min, rat liver microsome) ([2]; 1 μM compound, 0.5 mg/ml microsomal protein, 37° C., 1 µM): 2,132 min
half-life at 1 µM ([2]; 1 μM compound, 0.5 mg/ml microsomal protein, 37° C., read-out: Metabolic stability half-life (T1/2, min, rat liver microsome)): 35.5 h
half-life at 1 µM ([2]; rat liver microsomes, read-out: rat microsome metabolic stability, half-life): 35.5 h

C[C@@H]1CN(Cc2cc(Cl)cc(C(=O)Nc3nc4ccc(C(F)(F)F)cc4s3)c2O)C[C@H](C)O1.Cl [Compound 11, 5-chloro-3-((cis-2,6-dimethylmorpholino)methyl)-2-hydroxy-N-(6-(trifluoromethyl)benzo[d]thiazol-2-yl)benzamide]
minimal effective concentration [3]: < 5 µM
AUC at 24 h [4]: 60000 to 120000 ng·h/mL
minimal effective dose [5]: 1 mg/kg
GI50 [6]: 5 to 20 µM

COCCOCc1cc(C(F)(F)F)cc2sc(NC(=O)c3cc(Cl)cc(C)c3O)nc12 [Compound 13, 5-chloro-2-hydroxy-N-(4-((2-methoxyethoxy)methyl)-6-(trifluoromethyl)benzo[d]thiazol-2-yl)-3-methylbenzamide]
minimal effective concentration [3]: < 5 µM
C10%TMRE/Cmin-OCR [7]: ~13
AUC at 24 h [4]: 30000 to 60000 ng·h/mL
GI50 [6]: 5 to 20 µM

Cl.O=C(Nc1nc2ccc(C(F)(F)F)cc2s1)c1cc(Cl)cc(CN2CCOCC2)c1O [Compound 16, 5-chloro-2-hydroxy-3-(morpholinomethyl)-N-(6-(trifluoromethyl)benzo[d]thiazol-2-yl)benzamide]
minimal effective concentration [3]: < 5 µM
effect on oxygen consumption rate (OCR) ([3]; in words): increase OCR in the presence of oligomycin
AUC at 24 h [4]: 10000 to 30000 ng·h/mL
minimal effective dose [5]: 1 mg/kg
minimal effective concentration [8]: 5 µM
inhibition of TGFβ-induced hepatic stellate cell differentiation [8]: able to directly inhibit hepatic stellate cell (HSC) activation in vitro

O=C(Nc1nc2ccc(C(F)(F)F)cc2s1)c1cc(Cl)cc(CN2CCCC2)c1O [Compound 23, 5-chloro-2-hydroxy-3-(pyrrolidin-1-ylmethyl)-N-(6-(trifluoromethyl)benzo[d]thiazol-2-yl)benzamide]
minimal effective concentration [3]: < 5 µM
AUC at 24 h [4]: 10000 to 30000 ng·h/mL
minimal effective dose [5]: 10 mg/kg
minimal effective concentration [8]: 5 µM
inhibition of TGFβ-induced hepatic stellate cell differentiation [8]: able to directly inhibit hepatic stellate cell (HSC) activation in vitro

CCc1cc(Cl)cc(C(=O)Nc2nc3ccc(C(F)(F)F)cc3s2)c1O [Compound 27 in U.S. Pat. No. 10,227,315, reference compound]
AUC(0-t) at 24 h ([4]; 10 mg/kg): ~3000 ng·h/mL
Fold increase over Compound 27 in U.S. Pat. No. 10,227,315 [4]: 1.0
dose required to achieve efficacy, equivalent [9]: 60 to 75 mg/kg/day
dose required to achieve efficacy, in diet [9]: 600-750 ppm

Cc1cc(Cl)cc(C(=O)Nc2nc3ccc(C(F)(F)F)cc3s2)c1O [Compound 28 in U.S. Pat. No. 10,227,315, reference compound]
AUC(0-t) at 24 h ([4]; 10 mg/kg): 4410 ng·h/mL
Fold increase over Compound 27 in U.S. Pat. No. 10,227,315 [4]: 1.5
dose required to achieve efficacy, equivalent [9]: 60 to 75 mg/kg/day
dose required to achieve efficacy, in diet [9]: 600-750 ppm

O=C(Nc1nc2ccc(C(F)(F)F)cc2s1)c1cc(Cl)cc(CN2CCC(C(F)(F)F)CC2)c1O [Compound 57, 5-chloro-2-hydroxy-N-(6-(trifluoromethyl)benzo[d]thiazol-2-yl)-3-((4-(trifluoromethyl)piperidin-1-yl)methyl)benzamide]
minimal effective concentration [3]: < 5 µM
GI50 [10]: < 5 µM

COCc1cc(C(F)(F)F)cc2sc(NC(=O)c3cc(Cl)cc(C)c3O)nc12 [Compound 68, 5-chloro-2-hydroxy-N-(4-(methoxymethyl)-6-(trifluoromethyl)benzo[d]thiazol-2-yl)-3-methylbenzamide]
minimal effective concentration [3]: < 5 µM
AUC at 24 h [4]: 30000 to 60000 ng·h/mL
GI50 [10]: < 5 µM

Cc1cc(Cl)cc(C(=O)Nc2nc3c(C4CCCO4)cc(C(F)(F)F)cc3s2)c1O (stereo not drawn) [Compound 71, 5-chloro-2-hydroxy-3-methyl-N-(4-(tetrahydrofuran-2-yl)-6-(trifluoromethyl)benzo[d]thiazol-2-yl)benzamide]
minimal effective concentration [3]: < 5 µM
GI50 [10]: < 5 µM

O=[N+]([O-])c1ccc(O)c([N+](=O)[O-])c1 [DNP, 2,4-dinitrophenol]
C10%TMRE/Cmin-OCR [7]: ≤ 3
half-life [11]: days to weeks
toxicity in humans ([11]; human obesity treatment): exhibited high levels of toxicity and had a narrow therapeutic window

O=C(Nc1ccc([N+](=O)[O-])cc1Cl)c1cc(Cl)ccc1O [niclosamide ethanolamine]
AUC(0-t) at 24 h ([4]; 50 mg/kg): ~1800 ng·h/mL
dose required to achieve efficacy, equivalent [9]: 150 mg/kg/day
dose required to achieve efficacy, in diet [9]: 1500 ppm

— patent US20260306502A1, “MITOCHONDRIAL UNCOUPLERS FOR TREATMENT OF METABOLIC DISEASES AND CANCER” (Mito Biopharma, LLC, priority 2022, published 2026)
